# Data published in ChEMBL document CHEMBL4229327, “Chemical Approaches to Modulating Complement-Mediated Diseases” (J Med Chem, 2018).
# Peptide text beside a SMILES is read from it.
# Assays:
# Complement factor D [1] = target: T1, Complement factor D (Homo sapiens, UniProt P00746); experiment: Displacement of Cy5 from recombinant human biotin labeled factor D expressed in Escherichia coli after 2 hrs by TR-FRET assay
# [2] = target: T2, C3a anaphylatoxin chemotactic receptor (Homo sapiens, UniProt Q16581); experiment: Displacement of 125I-C3a from recombinant human C3aR expressed in HEK293 cell membranes after 3 hrs by scintillation proximity assay
# T2 sequence (Q16581 whole entry): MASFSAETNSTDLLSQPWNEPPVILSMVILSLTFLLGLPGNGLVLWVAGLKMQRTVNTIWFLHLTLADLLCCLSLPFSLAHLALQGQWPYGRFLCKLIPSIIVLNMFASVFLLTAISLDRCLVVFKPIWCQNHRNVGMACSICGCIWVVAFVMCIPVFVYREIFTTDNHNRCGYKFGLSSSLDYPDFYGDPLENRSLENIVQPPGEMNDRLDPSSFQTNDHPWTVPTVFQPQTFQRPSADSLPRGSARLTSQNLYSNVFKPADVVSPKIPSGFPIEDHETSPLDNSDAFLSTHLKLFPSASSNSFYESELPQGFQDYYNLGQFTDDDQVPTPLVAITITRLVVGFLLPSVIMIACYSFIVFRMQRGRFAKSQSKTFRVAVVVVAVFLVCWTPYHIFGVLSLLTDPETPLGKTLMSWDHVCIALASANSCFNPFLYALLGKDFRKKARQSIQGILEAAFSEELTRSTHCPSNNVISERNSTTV
# [3] = target: T2, C3a anaphylatoxin chemotactic receptor; experiment: Agonist activity at C3aR in HMDM assessed as induction of Ca2+ release; type: functional
# [4] = Oral bioavailability in Wistar rat at 10 mg/kg; type: ADME, organism-based; conditions: in vivo
# [5] = Half life in Wistar rat at 10 mg/kg, po or 1 mg/kg, iv; type: ADME, organism-based; conditions: in vivo
# Complement factor D [6] = target: T1, Complement factor D
# Description: Inhibition of factor D in human serum assessed as decrease in C3 deposition on PNH erythrocytes
# Complement C3 = Complement C3 (Homo sapiens, UniProt P01024); experiment: Inhibition of C3 in human serum by ELISA
# Sequence of Complement C3 (P01024 23-667 limits assumed): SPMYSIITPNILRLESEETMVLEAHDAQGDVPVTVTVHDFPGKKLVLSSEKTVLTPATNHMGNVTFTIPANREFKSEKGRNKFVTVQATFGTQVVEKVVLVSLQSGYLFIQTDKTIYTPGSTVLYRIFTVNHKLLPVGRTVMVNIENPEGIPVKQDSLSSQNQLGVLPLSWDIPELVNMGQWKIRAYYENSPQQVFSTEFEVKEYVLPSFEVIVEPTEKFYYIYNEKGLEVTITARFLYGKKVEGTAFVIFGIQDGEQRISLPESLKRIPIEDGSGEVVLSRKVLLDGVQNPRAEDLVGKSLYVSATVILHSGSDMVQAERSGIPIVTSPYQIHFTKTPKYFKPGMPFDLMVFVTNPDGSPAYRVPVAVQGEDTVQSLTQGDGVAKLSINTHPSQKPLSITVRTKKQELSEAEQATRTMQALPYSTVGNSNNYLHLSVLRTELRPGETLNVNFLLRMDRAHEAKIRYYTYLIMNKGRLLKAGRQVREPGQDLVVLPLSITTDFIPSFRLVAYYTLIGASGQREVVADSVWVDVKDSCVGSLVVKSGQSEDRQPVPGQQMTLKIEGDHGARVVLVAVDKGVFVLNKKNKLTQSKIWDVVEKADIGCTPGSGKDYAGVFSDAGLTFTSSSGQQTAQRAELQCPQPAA
# Sequence of Complement C3 (P01024 672-1663 limits assumed): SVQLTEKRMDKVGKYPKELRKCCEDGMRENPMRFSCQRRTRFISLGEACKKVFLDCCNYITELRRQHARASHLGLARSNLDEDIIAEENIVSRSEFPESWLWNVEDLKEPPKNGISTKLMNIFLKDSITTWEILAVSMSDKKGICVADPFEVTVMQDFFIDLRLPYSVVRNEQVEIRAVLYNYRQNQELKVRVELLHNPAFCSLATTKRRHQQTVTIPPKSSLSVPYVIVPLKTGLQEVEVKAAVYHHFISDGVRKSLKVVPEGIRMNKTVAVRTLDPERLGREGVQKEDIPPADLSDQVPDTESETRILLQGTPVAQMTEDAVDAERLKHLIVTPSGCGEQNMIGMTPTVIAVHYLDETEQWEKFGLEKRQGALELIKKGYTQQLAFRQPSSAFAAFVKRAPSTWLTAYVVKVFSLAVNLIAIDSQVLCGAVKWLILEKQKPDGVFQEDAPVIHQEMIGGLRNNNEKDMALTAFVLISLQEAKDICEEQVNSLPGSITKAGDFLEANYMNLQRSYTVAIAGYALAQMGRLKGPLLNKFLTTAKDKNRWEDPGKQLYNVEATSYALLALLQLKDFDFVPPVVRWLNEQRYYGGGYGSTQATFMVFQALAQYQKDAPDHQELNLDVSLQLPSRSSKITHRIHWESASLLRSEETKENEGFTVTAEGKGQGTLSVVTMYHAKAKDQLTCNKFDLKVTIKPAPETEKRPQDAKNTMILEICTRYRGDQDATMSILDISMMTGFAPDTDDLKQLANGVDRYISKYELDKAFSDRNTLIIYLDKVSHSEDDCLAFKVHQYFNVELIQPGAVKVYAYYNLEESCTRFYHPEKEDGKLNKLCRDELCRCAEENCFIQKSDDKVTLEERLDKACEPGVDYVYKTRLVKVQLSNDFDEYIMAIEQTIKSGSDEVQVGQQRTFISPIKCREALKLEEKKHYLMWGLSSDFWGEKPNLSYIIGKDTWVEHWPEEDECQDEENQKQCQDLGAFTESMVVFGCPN
# [7] = Inhibition of factor D in […]-activated dog serum assessed as decrease in human erythrocyte lysis; conditions: Canis lupus familiaris
# [8] = Inhibition of factor D in […]-activated cat serum assessed as decrease in human erythrocyte lysis; conditions: Felis catus
# [9] = target: T3, Mannan-binding lectin serine protease 2 (Homo sapiens, UniProt O00187); experiment: Inhibition of MASP-2-mediated C4 deposition in human serum after 1 hr by ELISA
# T3 sequence (O00187 16-444 limits assumed): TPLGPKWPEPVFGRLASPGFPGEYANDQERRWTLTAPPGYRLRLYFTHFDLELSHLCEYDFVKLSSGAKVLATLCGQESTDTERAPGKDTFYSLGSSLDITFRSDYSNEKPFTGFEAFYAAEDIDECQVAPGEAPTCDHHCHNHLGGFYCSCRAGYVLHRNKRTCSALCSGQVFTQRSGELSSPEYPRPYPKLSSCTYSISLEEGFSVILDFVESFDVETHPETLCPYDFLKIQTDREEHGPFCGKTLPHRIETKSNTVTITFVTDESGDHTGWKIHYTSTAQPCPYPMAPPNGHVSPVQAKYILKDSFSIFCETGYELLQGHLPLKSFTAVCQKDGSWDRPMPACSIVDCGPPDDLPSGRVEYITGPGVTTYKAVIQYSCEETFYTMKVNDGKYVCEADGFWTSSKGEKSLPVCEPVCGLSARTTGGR
# T3 sequence (O00187 445-686 limits assumed): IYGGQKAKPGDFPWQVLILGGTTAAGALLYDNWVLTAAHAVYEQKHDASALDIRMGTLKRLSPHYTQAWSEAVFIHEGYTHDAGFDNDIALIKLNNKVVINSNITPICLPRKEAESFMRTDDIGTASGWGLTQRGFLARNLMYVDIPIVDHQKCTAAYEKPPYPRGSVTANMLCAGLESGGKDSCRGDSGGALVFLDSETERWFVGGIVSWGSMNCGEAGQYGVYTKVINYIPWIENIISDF
# [10] = target: T3, Mannan-binding lectin serine protease 2; experiment: Inhibition of MASP-2 (unknown origin) using Z-L-LysSBzl hydrochloride as substrate preincubated for 1 hr followed by substrate addition
# [11] = target: T4, Mannan-binding lectin serine protease 1 (Homo sapiens, UniProt P48740); experiment: Inhibition of MASP-1-mediated C3 deposition in human serum after 30 mins by ELISA
# T4 sequence (P48740 whole entry): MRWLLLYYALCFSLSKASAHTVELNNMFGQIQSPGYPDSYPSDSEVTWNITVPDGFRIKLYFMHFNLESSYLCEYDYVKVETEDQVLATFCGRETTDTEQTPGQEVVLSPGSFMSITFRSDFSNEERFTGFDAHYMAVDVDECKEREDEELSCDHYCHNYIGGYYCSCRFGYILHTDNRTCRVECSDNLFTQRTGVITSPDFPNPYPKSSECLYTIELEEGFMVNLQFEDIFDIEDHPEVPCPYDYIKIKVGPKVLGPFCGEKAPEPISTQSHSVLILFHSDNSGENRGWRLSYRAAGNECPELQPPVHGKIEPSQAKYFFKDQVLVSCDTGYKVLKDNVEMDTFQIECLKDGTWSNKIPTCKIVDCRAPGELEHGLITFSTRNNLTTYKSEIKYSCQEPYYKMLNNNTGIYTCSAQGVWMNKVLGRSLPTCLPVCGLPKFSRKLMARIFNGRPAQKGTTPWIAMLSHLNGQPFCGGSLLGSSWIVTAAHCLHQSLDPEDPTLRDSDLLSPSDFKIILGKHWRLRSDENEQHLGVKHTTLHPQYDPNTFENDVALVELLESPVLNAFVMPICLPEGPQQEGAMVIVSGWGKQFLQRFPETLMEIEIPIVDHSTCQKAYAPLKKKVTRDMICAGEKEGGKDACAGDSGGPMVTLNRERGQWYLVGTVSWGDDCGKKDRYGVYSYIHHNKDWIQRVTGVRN
# [12] = target: T2, C3a anaphylatoxin chemotactic receptor; experiment: Antagonist activity at C3aR in HMDM assessed as inhibition of agonist-induced Ca2+ release; type: functional
# [13] = target: T2, C3a anaphylatoxin chemotactic receptor; experiment: Displacement of 125I-C3a from human C3aR expressed in RBL-2H3 cells; type: cell-based
# [14] = target: T2, C3a anaphylatoxin chemotactic receptor; experiment: Antagonist activity at human C3aR expressed in RBL-2H3 cells assessed as inhibition of C3a-induced intracellular calcium mobilization; type: functional, cell-based
# Complement factor B = Complement factor B (Homo sapiens, UniProt P00751); experiment: Displacement of Cy5 from recombinant human biotin-labeled factor B expressed in drosophila cells after 2 hrs by TR-FRET assay; type: cell-based
# Sequence of Complement factor B (P00751 whole entry): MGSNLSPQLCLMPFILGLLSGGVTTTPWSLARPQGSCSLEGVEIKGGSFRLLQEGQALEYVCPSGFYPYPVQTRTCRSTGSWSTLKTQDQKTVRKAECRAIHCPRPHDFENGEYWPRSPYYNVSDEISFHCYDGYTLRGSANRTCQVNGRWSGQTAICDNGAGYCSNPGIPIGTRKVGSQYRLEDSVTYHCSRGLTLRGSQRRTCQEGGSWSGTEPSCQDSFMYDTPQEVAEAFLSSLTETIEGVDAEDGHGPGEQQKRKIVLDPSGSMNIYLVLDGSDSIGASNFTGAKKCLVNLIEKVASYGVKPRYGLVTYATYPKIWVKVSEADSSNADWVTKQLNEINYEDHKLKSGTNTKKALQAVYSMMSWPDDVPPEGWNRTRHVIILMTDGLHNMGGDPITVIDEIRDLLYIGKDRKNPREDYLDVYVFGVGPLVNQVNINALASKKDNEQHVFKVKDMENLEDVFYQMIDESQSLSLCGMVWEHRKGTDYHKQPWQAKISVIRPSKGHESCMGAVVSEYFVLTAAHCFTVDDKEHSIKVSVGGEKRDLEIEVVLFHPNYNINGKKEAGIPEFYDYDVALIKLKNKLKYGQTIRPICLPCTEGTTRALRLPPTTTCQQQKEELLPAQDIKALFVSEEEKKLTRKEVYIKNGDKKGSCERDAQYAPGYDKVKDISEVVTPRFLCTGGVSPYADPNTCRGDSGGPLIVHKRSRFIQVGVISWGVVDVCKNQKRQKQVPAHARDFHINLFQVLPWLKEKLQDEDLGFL
# Integrin alpha-M/beta-2 [15] = target: T5, Integrin alpha-M/beta-2 (Homo sapiens, UniProt P05107+P11215); experiment: Antagonist activity at CR3 in carboxyfluorescein diacetate succiminidyl ester-labeled human PMN assessed as inhibition of TNF/PMA-stimulated adhesion of PMN to fibrinogen preincubated for 10 mins followed by TNF/PMA addition by fluorescence assay; type: protein-complex assay
# T5 sequence (P05107 23-769 limits assumed, other chains not shown): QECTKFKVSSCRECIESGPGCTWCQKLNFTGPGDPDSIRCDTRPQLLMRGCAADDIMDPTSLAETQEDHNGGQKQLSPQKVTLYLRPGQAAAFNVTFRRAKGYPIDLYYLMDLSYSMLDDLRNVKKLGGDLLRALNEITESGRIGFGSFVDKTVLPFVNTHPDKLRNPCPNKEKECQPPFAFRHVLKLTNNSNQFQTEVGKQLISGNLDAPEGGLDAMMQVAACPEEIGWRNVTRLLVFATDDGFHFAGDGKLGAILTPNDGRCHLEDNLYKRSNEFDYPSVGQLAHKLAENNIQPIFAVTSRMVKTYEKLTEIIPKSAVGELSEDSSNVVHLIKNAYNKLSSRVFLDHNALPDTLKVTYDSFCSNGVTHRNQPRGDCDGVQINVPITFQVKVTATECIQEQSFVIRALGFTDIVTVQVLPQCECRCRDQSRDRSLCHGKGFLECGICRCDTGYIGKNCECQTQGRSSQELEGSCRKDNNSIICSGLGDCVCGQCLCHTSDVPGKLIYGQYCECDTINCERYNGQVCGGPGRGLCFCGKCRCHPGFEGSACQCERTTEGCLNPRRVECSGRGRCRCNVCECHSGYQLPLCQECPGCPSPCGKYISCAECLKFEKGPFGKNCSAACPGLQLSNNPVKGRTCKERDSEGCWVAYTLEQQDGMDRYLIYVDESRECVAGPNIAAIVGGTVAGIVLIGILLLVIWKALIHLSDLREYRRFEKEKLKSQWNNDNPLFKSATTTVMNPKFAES
# Integrin alpha-M/beta-2 [16] = target: T5, Integrin alpha-M/beta-2; experiment: Inhibition of C3bi-AP binding to CR3 derived from human PMN; type: protein-complex assay
# Complement C2 [17] = target: T6, Complement C2 (Homo sapiens, UniProt P06681); experiment: Inhibition of C2-mediated MAC formation in human serum by ELISA
# T6 sequence (P06681 whole entry): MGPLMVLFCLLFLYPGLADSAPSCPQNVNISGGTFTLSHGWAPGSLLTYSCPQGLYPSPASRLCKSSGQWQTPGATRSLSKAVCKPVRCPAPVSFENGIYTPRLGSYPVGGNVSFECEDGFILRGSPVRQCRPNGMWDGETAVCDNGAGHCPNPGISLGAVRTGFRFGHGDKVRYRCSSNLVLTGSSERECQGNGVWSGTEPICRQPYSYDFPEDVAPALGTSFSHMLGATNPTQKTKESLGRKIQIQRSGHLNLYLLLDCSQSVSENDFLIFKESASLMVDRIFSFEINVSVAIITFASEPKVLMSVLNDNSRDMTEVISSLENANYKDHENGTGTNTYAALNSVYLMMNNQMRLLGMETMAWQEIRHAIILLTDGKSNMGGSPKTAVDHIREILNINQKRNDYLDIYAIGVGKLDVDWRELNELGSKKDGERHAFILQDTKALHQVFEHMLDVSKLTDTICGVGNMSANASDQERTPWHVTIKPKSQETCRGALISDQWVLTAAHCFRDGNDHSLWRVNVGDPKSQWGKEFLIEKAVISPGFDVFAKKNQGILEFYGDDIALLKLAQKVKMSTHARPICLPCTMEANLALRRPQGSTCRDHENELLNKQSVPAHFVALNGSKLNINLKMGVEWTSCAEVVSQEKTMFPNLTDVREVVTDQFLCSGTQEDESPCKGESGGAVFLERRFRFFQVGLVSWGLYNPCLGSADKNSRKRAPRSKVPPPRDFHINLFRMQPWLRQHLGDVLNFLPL
# Complement C2 [18] = target: T6, Complement C2; experiment: Competitive/reversible inhibition of human C2 using Ac-SHLGLAR-pNA as substrate
# Complement C2 [19] = target: T6, Complement C2; experiment: Inhibition of human C2-mediated C3 processing after 24 hrs by SDS-PAGE
# [20] = target: T3, Mannan-binding lectin serine protease 2; experiment: Inhibition of MASP2 (unknown origin)-induced lectin pathway by ELISA
# [21] = target: T3, Mannan-binding lectin serine protease 2; experiment: Inhibition of recombinant […] fragment of MASP-2 (unknown origin)
# [22] = target: T7, C5a anaphylatoxin chemotactic receptor 1 (Homo sapiens, UniProt P21730); experiment: Antagonist activity at recombinant human C5aR1 expressed in Sf9 insect cell membranes co-expressing G-alphai2,G-beta1 and G-gamma2 assessed as inhibition of recombinant human C5a-induced [35S]GTPgammaS binding after 60 mins by liquid scintillation spectrometry; type: functional
# T7 sequence (P21730 whole entry): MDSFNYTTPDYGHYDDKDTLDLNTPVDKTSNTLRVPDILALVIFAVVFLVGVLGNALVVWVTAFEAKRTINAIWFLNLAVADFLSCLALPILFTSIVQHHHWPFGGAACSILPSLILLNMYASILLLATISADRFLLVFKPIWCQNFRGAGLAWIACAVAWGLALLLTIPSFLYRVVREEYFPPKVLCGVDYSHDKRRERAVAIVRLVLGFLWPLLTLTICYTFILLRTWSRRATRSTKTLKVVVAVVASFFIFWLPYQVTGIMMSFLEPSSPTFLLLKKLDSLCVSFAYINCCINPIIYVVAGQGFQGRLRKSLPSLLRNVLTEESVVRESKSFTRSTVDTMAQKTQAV
# T1 sequence (P00746 whole entry): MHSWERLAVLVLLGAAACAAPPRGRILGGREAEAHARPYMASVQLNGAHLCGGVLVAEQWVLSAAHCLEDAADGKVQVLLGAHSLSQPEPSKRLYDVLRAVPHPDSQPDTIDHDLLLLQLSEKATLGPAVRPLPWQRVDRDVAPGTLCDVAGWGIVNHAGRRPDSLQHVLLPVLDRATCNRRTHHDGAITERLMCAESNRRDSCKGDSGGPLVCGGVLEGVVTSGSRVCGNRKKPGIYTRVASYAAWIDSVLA
smiles,measurement,setting,value
Cn1cc(-c2cc(COc3ccccc3CC(=O)O)cc(-c3cccc(CC(N)=O)c3F)c2)cn1,IC50,Complement factor D [1],23 nM
N=C(N)NCCC[C@H](NC(=O)c1cccn(Cc2ccccc2Br)c1=O)C(=O)O,IC50,[2],50 nM
N=C(N)NCCC[C@H](Nc1nccc2[nH]c(C(c3ccccc3)c3ccccc3)nc12)C(=O)O,EC50,[3],15 nM
COc1ccc2c(c1)C(C(=O)N(Cc1ccc(N(C)C)cc1)c1ccc(C(C)C)cc1)CCC2 (stereo unspecified),bioavailability,[4],70%
same,half-life,[5],1 to 3 h
CC(=O)c1nn(CC(=O)N2C[C@H](F)C[C@H]2C(=O)Nc2cccc(Br)n2)c2ccc(-c3cnc(C)nc3)cc12,IC90,Complement factor D [6],89 nM
CC(=O)N[C@@H](Cc1ccccc1)C(=O)N[C@H]1CCCNC(=O)[C@H](CCCNC(=N)N)NC(=O)[C@H](Cc2c[nH]c3ccccc23)NC(=O)[C@@H](CC2CCCCC2)NC(=O)[C@@H]2CCCN2C1=O,bioavailability,[4],≤ 2%
same,half-life,[5],20 h
CC[C@H](C)[C@H](NC(C)=O)C(=O)N[C@H]1CSSC[C@@H](C(=O)N(C)[C@H](C(N)=O)[C@@H](C)CC)NC(=O)[C@H](CCCNC(=N)N)NC(=O)[C@H](Cc2c[nH]cn2)NC(=O)[C@H](C)NC(=O)CN(C)C(=O)[C@H](Cc2c[nH]c3ccccc23)NC(=O)[C@H](CC(=O)O)NC(=O)[C@H](CCC(N)=O)NC(=O)[C@H](Cc2cn(C)c3ccccc23)NC(=O)[C@H](C(C)C)NC1=O,IC50,Complement C3,62 nM
CC(=O)Oc1ccc(Cc2ccc(OC(C)=O)c(C(=O)O)c2)cc1C(=O)O,IC50,[7],100 nM
same,IC50,[8],100 nM
CC[C@H](C)[C@H](NC(=O)[C@H](CS)NC(=O)[C@@H](NC(=O)[C@@H]1CCCN1C(=O)[C@@H]1CCCN1C(=O)[C@H](Cc1ccc(O)cc1)NC(=O)[C@H](CO)NC(=O)[C@H](CCCNC(=N)N)NC(=O)[C@H](CO)NC(=O)[C@H](CS)NC(=O)[C@H](Cc1ccc(O)cc1)NC(=O)CN)C(C)C)C(=O)N1CCC[C@H]1C(=O)N[C@@H](CC(=O)O)C(=O)O (H-GYCSRSYPPVCIPD-OH),IC50,[9],2700 nM
same,Ki,[10],180 nM
same,IC50,[11],220 nM
N=C(N)NCCC[C@@H](C(=O)O)N1Cc2nc(C(c3ccccc3)c3ccccc3)sc2C1=O,IC50,[12],320 nM
N=C(N)NCCC[C@H](NC(=O)COCC(c1ccccc1)c1ccccc1)C(=O)O,IC50,[13],200 nM
same,IC50,[14],28 nM
COc1cc(C)c2[nH]ccc2c1C(C)(C)c1nc2cc(C#N)cnc2[nH]1,IC50,Complement factor B,30 nM
CC(=O)Oc1ccc(-c2ccc(OC(C)=O)c(C(=O)O)c2)cc1C(=O)O,IC50,[7],100 nM
same,IC50,[8],100 nM
CCN1/C(=C/C=C/c2sc3ccccc3[n+]2CC)Sc2ccccc21,IC50,Integrin alpha-M/beta-2 [15],2500 to 10000 nM
same,IC50,Integrin alpha-M/beta-2 [16],330 nM
CC(=O)N[C@@H](CCCNC(=N)N)C(=O)N[C@@H](CC(C)C)C(=O)N[C@@H](CC(C)C)C(=O)N[C@@H](CC(C)C)C(=O)N[C@@H](C)C(=O)N[C@H](C=O)CCCNC(=N)N (Ac-RLLLAR-aldehyde),IC50,Complement C2 [17],7300 nM
same,IC50,Complement C2 [18],330 nM
same,IC50,Complement C2 [19],500 to 1000 nM
CCc1cccc(CC)c1-c1cc(OC(C)C)c2c(n1)CCCC2Nc1ccccc1CCO (stereo unspecified),half-life,[5],1 to 3 h
CC(C)C[C@H](NC(=O)[C@H](CCCCN)NC(=O)[C@@H](NC(=O)[C@H](CS)NC(=O)[C@@H](NC(=O)[C@H](C)NC(=O)[C@H](CO)NC(=O)[C@H](CCCCN)NC(=O)CNC(=O)[C@H](CC(=O)O)NC(=O)[C@H](CO)NC(=O)CNC(=O)[C@H](CS)NC(=O)[C@H](CCCNC(=N)N)NC(=O)[C@H](CS)NC(=O)[C@@H](NC(=O)[C@H](CC(N)=O)NC(=O)[C@H](CS)NC(=O)[C@H](CCCCN)NC(=O)[C@H](CC(=O)O)NC(=O)[C@H](CCCCN)NC(=O)[C@H](Cc1ccccc1)NC(=O)[C@@H](NC(=O)[C@@H](NC(=O)CNC(=O)[C@@H]1CCCN1C(=O)[C@H](CCC(=O)O)NC(=O)[C@H](CS)NC(=O)[C@@H](NC(=O)[C@@H](NC(=O)[C@@H](N)CCC(=O)O)C(C)C)[C@@H](C)O)[C@@H](C)O)[C@@H](C)O)[C@@H](C)O)C(C)C)[C@@H](C)O)C(=O)N[C@@H](Cc1c[nH]c2ccccc12)C(=O)N[C@@H](CS)C(=O)N[C@@H](CC(N)=O)C(=O)N[C@@H](CCC(N)=O)C(=O)O (H-EVTCEPGTTFKDKCNTCRCGSDGKSAVCTKLWCNQ-OH),IC50,[20],66 nM
same,Ki,[21],6 nM
C[C@@H](C(=O)N(Cc1ccccc1F)C1Cc2ccccc2C1)N1CCc2ccccc2[C@@H]1c1cccc2ccccc12,Ki,[22],15.2 nM
CC[n+]1c(/C=C/C=C/N2CCCc3ccccc32)sc2ccc3ccccc3c21,IC50,Integrin alpha-M/beta-2 [15],2500 to 10000 nM
same,IC50,Integrin alpha-M/beta-2 [16],140 nM
